The values that follow are results of earlier work, collected in patent US5478816A, “Liquid vitamin formulations containing vitamin D esters” (Bristol-Myers Squibb Company, priority 1993, dated 1995).

Read-outs that look alike come from different tables or passages of the source.

The conditions of this data set: cited from earlier work.

With `C=C1CC[C@H](O)C/C1=C/C=C1\CCC[C@]2(C)[C@@H]([C@H](C)/C=C/[C@H](C)C(C)C)CC[C@@H]12` [Vitamin D2], the stability entry runs as follows: (in corn oil, propylene glycol, and milk) “stable”; (in propylene glycol when diluted in water) “deteriorate”.

In the case of vitamin D, the stability entry runs as follows: (at a mid-pH) “stable”; (in an alkaline medium or in the presence of light and air) “slowly destroyed”; (in an aqueous environment) “unstable”; (in the presence of minerals) “unstable”.
